From ChEMBL document CHEMBL1201862, “PubChem BioAssay data set” (2004)
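Cultured in 96-well plates, cells were exposed to test compound for 48 hours across five concentrations. At the GI50, growth is halved.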 Active and inactive are the calls of the source. Cut-off read from the data, not from the text of the source: active = GI50 up to about 1.1 µM and inactive = higher.

Legend:
Assay in all cases: NCI anticancer screen, dose series, 48 h
[1] = test system: COLO 205
[2] = test system: HCC 2998
[3] = test system: HL-60
[4] = test system: HOP-62
[5] = test system: HOP-92
[6] = test system: Hs-578T
[7] = test system: K562
[8] = test system: MCF7
[9] = test system: NCI-H23
[10] = test system: NCI-H460
[11] = test system: NCI/ADR-RES
[12] = test system: OVCAR-4
[13] = test system: PC-3
[14] = test system: SF-268
[15] = test system: SK-MEL-28
[16] = test system: SN12C
[17] = test system: BT-549
[18] = test system: HCT-15
[19] = test system: SK-MEL-2
[20] = test system: U-251

Row | Structure (SMILES) | GI50 [1] | GI50 [2] | GI50 [3] | GI50 [4] | GI50 [5] | GI50 [6] | GI50 [7] | GI50 [8] | GI50 [9] | GI50 [10] | GI50 [11] | GI50 [12] | GI50 [13] | GI50 [14] | GI50 [15] | GI50 [16] | GI50 [17] | GI50 [18] [µM] | GI50 [19] | GI50 [20]
1 | C/C(=C\CNc1ncnc2c1ncn2CCC(=O)OC(C)(C)C)CO | > 100 µM (inactive) | > 100 µM (inactive) | > 100 µM (inactive) | > 100 µM (inactive) | > 100 µM (inactive) | > 100 µM (inactive) | > 100 µM (inactive) | > 100 µM (inactive) | > 100 µM (inactive) | > 100 µM (inactive) | > 100 µM (inactive) | > 100 µM (inactive) | > 100 µM (inactive) | > 100 µM (inactive) | > 100 µM (inactive) | > 100 µM (inactive) |  |  |  | 
2 | COc1cccc2c1OC1c3ccccc3OCC1(O)C2 (stereo not given) | > 100 µM (inactive) | > 100 µM (inactive) |  | > 100 µM (inactive) | > 100 µM (inactive) |  | > 100 µM (inactive) | > 100 µM (inactive) | > 100 µM (inactive) |  | > 100 µM (inactive) | > 100 µM (inactive) | > 100 µM (inactive) | > 100 µM (inactive) |  | > 100 µM (inactive) | > 100 µM (inactive) | > 100 | > 100 µM (inactive) | > 100 µM (inactive)
3 | CN(Cc1cnc2nc(N)nc(N)c2n1)c1ccc(C(=O)NC(CCC(=O)O)C(=O)O)cc1C(F)(F)F (stereo not given) | < 0.01 µM (active) | < 0.01 µM (active) | < 0.01 µM (active) |  | > 100 µM (inactive) | > 72.9 µM (inactive) | < 0.01 µM (active) | < 0.01 µM (active) | < 0.01 µM (active) | < 0.01 µM (active) | < 0.01 µM (active) | > 100 µM (inactive) | < 0.01 µM (active) | < 0.01 µM (active) | > 100 µM (inactive) | < 0.01 µM (active) |  | < 0.01 | > 100 µM (inactive) | < 0.01 µM (active)
4 | COC(=O)C1C(O)C(C(=O)OC)C(C)N(C)C1C (stereo not given) | > 100 µM (inactive) |  | > 100 µM (inactive) | > 100 µM (inactive) | > 100 µM (inactive) |  | > 100 µM (inactive) | > 100 µM (inactive) | > 100 µM (inactive) | > 100 µM (inactive) | > 100 µM (inactive) | > 100 µM (inactive) | > 100 µM (inactive) |  | > 100 µM (inactive) | > 100 µM (inactive) | > 100 µM (inactive) | > 100 | > 100 µM (inactive) | > 100 µM (inactive)
5 | CC(=O)/C(=C/NC(=S)N/N=C1\C(=O)Nc2ccccc21)C(=O)Nc1ccccc1C | > 100 µM (inactive) | > 100 µM (inactive) | 41 µM (inactive) | > 100 µM (inactive) | > 100 µM (inactive) |  |  |  | > 100 µM (inactive) | > 100 µM (inactive) | > 100 µM (inactive) | > 100 µM (inactive) |  | > 100 µM (inactive) | > 100 µM (inactive) | > 100 µM (inactive) | > 100 µM (inactive) | > 100 | > 100 µM (inactive) | > 100 µM (inactive)
6 | C=C(C)C(=O)OC1CCC2(C)C(CCC3C2CCC2(C)C(c4ccc(=O)oc4)CC4OC432)C1 (stereo not given) | 8.18 µM (inactive) | 5.19 µM (inactive) | 0.57 µM (active) | 3.31 µM (inactive) | 0.804 µM (active) |  | 2.69 µM (inactive) | 2.48 µM (inactive) | 3.49 µM (inactive) | 1.25 µM (inactive) | 6.46 µM (inactive) | 5.75 µM (inactive) |  | 5.31 µM (inactive) | 12.5 µM (inactive) | 3.61 µM (inactive) |  | 6.78 | 4.28 µM (inactive) | 6.73 µM (inactive)
7 | c1cnc2c(c1)Nc1cnncc1S2 | > 100 µM (inactive) | > 100 µM (inactive) | > 100 µM (inactive) | > 100 µM (inactive) | 86.3 µM (inactive) | > 100 µM (inactive) | > 100 µM (inactive) | > 100 µM (inactive) | > 100 µM (inactive) | > 100 µM (inactive) | > 100 µM (inactive) | > 100 µM (inactive) | > 100 µM (inactive) | > 100 µM (inactive) | > 100 µM (inactive) | > 100 µM (inactive) |  | > 100 | > 100 µM (inactive) | > 100 µM (inactive)
8 | CCOc1ncn(-c2ccc(NC(=S)Nc3cnccn3)cc2)n1 |  |  | > 10 µM (inactive) |  | > 10 µM (inactive) | > 10 µM (inactive) | > 10 µM (inactive) | > 10 µM (inactive) | > 10 µM (inactive) | > 10 µM (inactive) | > 10 µM (inactive) | > 10 µM (inactive) |  | > 10 µM (inactive) |  | > 10 µM (inactive) | > 10 µM (inactive) | > 10 | > 10 µM (inactive) | > 10 µM (inactive)
9 | COc1cc([C@@H]2c3cc(O)c(OC)cc3C=C(C(N)=O)[C@H]2C(N)=O)ccc1O | > 100 µM (inactive) | > 100 µM (inactive) | > 100 µM (inactive) | > 100 µM (inactive) | > 100 µM (inactive) | > 100 µM (inactive) | > 100 µM (inactive) | > 100 µM (inactive) | > 100 µM (inactive) | > 100 µM (inactive) | > 100 µM (inactive) |  | > 100 µM (inactive) | > 100 µM (inactive) | > 100 µM (inactive) | > 100 µM (inactive) |  | > 100 |  | > 100 µM (inactive)
10 | Cc1ccc(S(=O)(=O)Nc2nnc(S(N)(=O)=O)s2)cc1 | > 100 µM (inactive) | > 100 µM (inactive) |  | > 100 µM (inactive) | > 100 µM (inactive) | > 100 µM (inactive) | > 100 µM (inactive) | > 100 µM (inactive) | > 100 µM (inactive) | > 100 µM (inactive) | > 100 µM (inactive) | > 100 µM (inactive) |  | > 100 µM (inactive) | > 100 µM (inactive) | > 100 µM (inactive) | > 100 µM (inactive) | > 100 | > 100 µM (inactive) | > 100 µM (inactive)
11 | CN(C)CCNC(=O)c1cccc2c(NC(CCC(N)=O)C(=O)O)c3ccccc3nc12 (stereo not given) | 4.8 µM (inactive) | 12.5 µM (inactive) |  | 6.4 µM (inactive) | 14.5 µM (inactive) |  | 4.4 µM (inactive) | 4.55 µM (inactive) | 3.45 µM (inactive) | 11.1 µM (inactive) | 9.98 µM (inactive) | 16.1 µM (inactive) | 5.43 µM (inactive) | 5.14 µM (inactive) | 12.5 µM (inactive) | 10.4 µM (inactive) | 10.5 µM (inactive) | 4.08 | 11.9 µM (inactive) | 8.15 µM (inactive)
12 | COC(=O)CC[N+]1=CCC(c2ccccc2)(c2ccccc2)O1 | > 100 µM (inactive) | > 100 µM (inactive) |  | > 100 µM (inactive) | > 100 µM (inactive) | > 100 µM (inactive) | > 100 µM (inactive) | > 100 µM (inactive) | > 100 µM (inactive) | > 100 µM (inactive) |  | > 100 µM (inactive) | > 100 µM (inactive) | > 100 µM (inactive) | > 100 µM (inactive) | > 100 µM (inactive) | > 100 µM (inactive) | > 100 | > 100 µM (inactive) | > 100 µM (inactive)
13 | COC(=O)NC(Nc1ccccn1)(C(F)(F)F)C(F)(F)F |  | > 100 µM (inactive) | > 100 µM (inactive) | > 100 µM (inactive) | > 100 µM (inactive) | > 100 µM (inactive) | > 100 µM (inactive) | > 100 µM (inactive) | > 100 µM (inactive) | > 100 µM (inactive) | > 100 µM (inactive) |  |  | > 100 µM (inactive) | > 100 µM (inactive) |  | > 100 µM (inactive) | > 100 | > 100 µM (inactive) | > 100 µM (inactive)
14 | CO/N=C(/C(=O)OC)c1ccccc1COc1cccc(C(F)(F)F)c1 | 41.8 µM (inactive) |  | 9.68 µM (inactive) | 21.2 µM (inactive) | 36.2 µM (inactive) | 25.8 µM (inactive) | 18.5 µM (inactive) | 25.3 µM (inactive) | 27.9 µM (inactive) | 28.8 µM (inactive) | 36.9 µM (inactive) | 19.5 µM (inactive) | 22 µM (inactive) | 35.5 µM (inactive) | 78.7 µM (inactive) | 43.9 µM (inactive) |  | 29.2 | 36.1 µM (inactive) | 36.4 µM (inactive)
15 | C#Cc1cc(-c2nc3ccccc3s2)ccc1N | 17.5 µM (inactive) | 10.3 µM (inactive) | 24.7 µM (inactive) | 37.3 µM (inactive) | 11 µM (inactive) |  | 25.3 µM (inactive) | < 0.01 µM (active) | 16.5 µM (inactive) | 16.5 µM (inactive) | 27.7 µM (inactive) | 17.6 µM (inactive) | 24.9 µM (inactive) | 25.8 µM (inactive) | 16.1 µM (inactive) | 22 µM (inactive) | 20 µM (inactive) | 17.5 | 16.7 µM (inactive) | 20.6 µM (inactive)
16 | O=C(/C=C/c1cccs1)c1ccc(Cl)cc1 | > 100 µM (inactive) | > 100 µM (inactive) | 28.6 µM (inactive) | > 100 µM (inactive) |  | > 100 µM (inactive) | > 10 µM (inactive) | 21.9 µM (inactive) | 88.5 µM (inactive) | > 100 µM (inactive) | > 100 µM (inactive) |  | > 100 µM (inactive) | 50.8 µM (inactive) | > 100 µM (inactive) | 51.5 µM (inactive) |  | 41 | > 100 µM (inactive) | > 100 µM (inactive)
